# Measurements reported in patent publication US3981982A, “Radioimmunoassay for determining the digoxin content of a sample” (Abbott Laboratories, priority 1974, dated 1976).
# Where “and” joins values, the source holds several entries; their conditions need not be identical. Identical values can stand only once.
# Columns and labels:
# [1] = system: digoxin antibody; test: Competitive radioimmunoassay with I^125 digoxin tyramine analog, polyethylene glycol separation: percent bound (Table I); format: binding, rabbits; settings: for Percent Bound: single tube
# Text: Described is a competitive radioimmunoassay in which non-radioactive digoxin in a serum sample competes with a constant amount of I^125 digoxin tyramine analog for binding cites on a limited amount of digoxin antibody. The percentage or portion of the radioactivity labeled digoxin which is bound to the antibody is inversely proportional to the concentration of digoxin in the serum sample. The antibody bound digoxin, both radioactive and non-radioactive is separated from unbound digoxin and the radioactivity of the complex is measured with a well-type gamma scintillation counter. The concentration of digoxin in the serum is determined by comparison with standards containing measured amounts of unlabeled digoxin. The use of I^125 digoxin tyramine analog simplifies the procedure, obviating the need for liquid scintillation counting fluid which must be used with ^3 H-digoxin.
# In the radioimmunoassay of the present invention, the use of polyethylene glycol is preferred to separate the bound, labeled digoxin tyramine analog from the free digoxin although ethanol or ammonium sulfate can be used. After incubation of the antigen and antibody, a predetermined amount of polyethylene glycol is added and the mixture is agitated. Subsequently, the antibody-bound digoxin is precipitated and separated by centrifugation. The radioactivity remaining in the precipitate is measured to determine the amount of I^125 digoxin tyramine analog which is bound to the antibody. This amount will be inversely proportional with the quantity of nonlabeled antigen present in the serum sample.
# The radioimmunoassay of the present invention measures digoxin in the serum sample. The digoxin in a serum sample competes with a constant amount of a radioactively labeled digoxin tyramine analog for binding cites on a limited amount of digoxin antibody. The digoxin tyramine analog comprises 3-0-(4-Hydroxyphenethylcarbamoyl) digoxigenin prepared as hereinafter described. The digoxin tyramine analog is labeled with a radioactive isotope, employing conventional procedures. Iodine-I^125 is preferred as the labeling agent because of its advantageous half life but other radionuclides such as iodine^131, phosphorus^32 and tritium can also be used to radioactively label the reagent. The use of this tracer simplifies the procedure, obviating the need for liquid scintillation counting fluid which must be used with prior tracers such as ^3 H-digoxin.
# 1. I^125 -digoxin tyramine analog solution in an alcohol-phosphate saline buffer and having a radioactivity level of approximately 1 microcurie per vial.
# 2. Digoxin standards for preparation of a standard curve and comprising five vials containing 0.0, 0.5, 1.0, 2.0 and 4.0 nanograms per milliliter digoxin in normal human serum. 0.2% sodium azide is used as a preservative.
# 3. Digoxin antiserum obtained from rabbits in phosphate-saline buffer containing 0.1% […] serum albumin. 0.2% sodium azide is used as a preservative.
# 4. Polyethylene glycol, 18% solution in 0.09M barbital buffer.
# The test procedure is conducted as follows.
# b. Tubes 3 through 12 containing known amounts of digoxin are used to prepare the standard curve. Tubes 3 and 4, 0.0 nanograms per milliliter digoxin. Tubes 5 and 6, 0.5 nanograms per milliliter digoxin. Tubes 7 and 8, 1.0 nanograms per milliliter digoxin. Tubes 9 and 10, 2.0 nanograms per milliliter digoxin. Tubes 11 and 12, 4.0 nanograms per milliliter digoxin.
# (§1) The tubes are shaken to mix the reagents therein.
# The points are connected with straight lines to construct the curve.
# [2] = system: digoxin antibody; test: Reproducibility of percent bound, two technicians (Table II); format: binding, rabbits
# Method: as §1
# Table II illustrates the accuracy, precision and reproducibilty of the method of the present invention.
# Replicates of 2 Panel Samples were assayed by two technicians in the
# laboratory. Fifteen replicate samples were used.
# [3] = digoxin level; suggested by H. M. Part et al., J. of NUCL. Med. 1973; cited from earlier work
# [4] = usually; background statement; cited from earlier work
compound,measurement,setting,value
C[C@]12CC[C@H](OC(=O)NCCc3ccc(O)c([125I])c3)C[C@H]1CC[C@@H]1[C@@H]2C[C@@H](O)[C@]2(C)[C@@H](C3=CC(=O)OC3)CC[C@]12O [I^125 digoxin tyramine analog],Average % Bound,"[1]; digoxin standard 0.0 ng/ml, mean of duplicate tubes 3, 4",59.7%
same,Percent Bound,[1]; digoxin standard 0.0 ng/ml,59.2% and 60.2%
same,Average % Bound,"[1]; digoxin standard 0.5 ng/ml, mean of duplicate tubes 5, 6",52.9%
same,Percent Bound,[1]; digoxin standard 0.5 ng/ml,53.8% and 52.1%
same,Average % Bound,"[1]; digoxin standard 1.0 ng/ml, mean of duplicate tubes 7, 8",41.5%
same,Percent Bound,[1]; digoxin standard 1.0 ng/ml,41.5%
same,Average % Bound,"[1]; digoxin standard 2.0 ng/ml, mean of duplicate tubes 9, 10",22.9%
same,Percent Bound,[1]; digoxin standard 2.0 ng/ml,22.5% and 23.4%
same,Average % Bound,"[1]; digoxin standard 4.0 ng/ml, mean of duplicate tubes 11, 12",12.9%
same,Percent Bound,[1]; digoxin standard 4.0 ng/ml,12.8% and 12.9%
same,Average % Bound,"[1]; unknown serum sample No. 14, mean of duplicates",17.7%
same,Percent Bound,[1]; unknown serum sample No. 14,17.5% and 17.9%
same,Average % Bound,"[1]; unknown serum sample No. 15, mean of duplicates",64.1%
same,Percent Bound,[1]; unknown serum sample No. 15,63.3% and 65.0%
same,Average % Bound,"[1]; unknown serum sample No. 16, mean of duplicates",25.3%
same,Percent Bound,[1]; unknown serum sample No. 16,25.1% and 25.5%
same,Average % Bound,"[1]; unknown serum sample No. 17, mean of duplicates",49.6%
same,Percent Bound,[1]; unknown serum sample No. 17,50.8% and 48.5%
same,Average % Bound,"[1]; unknown serum sample No. 18, mean of duplicates",24.4%
same,Percent Bound,[1]; unknown serum sample No. 18,24.5% and 24.3%
same,% Bound,"[2]; Panel Sample 1, Technician I, fifteen replicates",44.1%
same,% Bound,"[2]; Panel Sample 1, Technician II, fifteen replicates",43.6%
same,% Bound,"[2]; Panel Sample 2, Technician I, only 14 replicates",21.5%
same,% Bound,"[2]; Panel Sample 2, Technician II, fifteen replicates",20.1%
C[C@H]1O[C@@H](O[C@H]2[C@@H](O)C[C@H](O[C@H]3[C@@H](O)C[C@H](O[C@H]4CC[C@@]5(C)[C@H](CC[C@@H]6[C@@H]5C[C@@H](O)[C@]5(C)[C@@H](C7=CC(=O)OC7)CC[C@]65O)C4)O[C@@H]3C)O[C@@H]2C)C[C@H](O)[C@@H]1O [digoxin],approximate toxic threshold,[3],~2 ng/mL
same,amounts of digoxin in serum,[4],less than five
